Converted amounts (≈) assume the structure as drawn. Where two headings read alike, the source gives them in different places.
Assays:
[1] = Single-dose ECG study in healthy human volunteers (1.6 and 3.2 mg/kg over 30 minutes); format: in vivo; conditions: 3.2 mg/kg infused over 30 minutes
Protocol: Based on this, a single-dose ECG-study was conducted in healthy human volunteers, where 1.6 mg/kg and 3.2 mg/kg iclaprim was infused over 30 minutes. […] Maximal increases coincided with Cmax levels and were rapidly reversible. Weight-based dosing with 1.6 mg/kg was thus assessed as acceptable for clinical purposes, whereas weight-based dosing at 3.2 mg/kg was associated with relevant QTc prolongations (>60 msec) and nonspecific T-wave alterations, and was not used for further clinical studies.

[2] = test system: H. influenzae; experiment: MIC with/without bovine pulmonary surfactant, H. influenzae; format: cell-based, Haemophilus influenzae; conditions: for MIC: Haemophilus influenzae
Protocol: (§1) Clinical isolates were identified by the submitting laboratories and confirmed by JMI Laboratories using standard bacteriologic algorithms and methodologies, including Matrix-Assisted Laser Desorption Ionization-Time Of Flight Mass Spectrometry (MALDI-TOF MS). When necessary, MALDI-TOF MS was performed using the Bruker Daltonics MALDI Biotyper (Billerica, Mass., USA), following manufacturer's instructions. Isolates selected were bacterial species commonly associated with pneumonia. […] 2.2 Susceptibility testing
(§2) Antibacterial susceptibility testing was measured by JMI Labs (North Liberty, Iowa, USA). […] These clinical isolates were collected from US (n=4), Mexico (n=2), and Italy (n=1). Susceptibility testing was performed by broth microdilution in accordance with the Clinical and Laboratory and Standards Institute (CLSI) guidelines M07-A10 (2015) and the standard operating procedures at JMI laboratories. Minimum inhibitory concentrations (MICs) were based on CLSI criteria (2015). There are no published breakpoints for iclaprim. E. coli, K. pneumoniae, M. catarrhalis, E. faecalis, and S. aureus were tested in cation-adjusted Mueller-Hinton broth (CA-MHB). S. pneumoniae were tested in CA-MHB supplemented with 2.5-5% lysed horse blood, and H. influenza were tested in Haemophilus test medium. Quality control and interpretation of results were performed in accordance with CLSI M100-S26 (2016) methods. QC ranges for iclaprim were those approved by CLSI and published in M100-S26 (2016). Iclaprim and comparator antibiotic MIC results were within the CLSI published ranges against E. coli ATCC 25922, E. faecalis ATCC 29212, E. faecalis ATCC 33186, H. influenzae ATCC 49247, K. pneumoniae ATCC 700603 (ESBL phenotype), S. aureus ATCC 29213, and S. pneumoniae ATCC 49619. Isolates were tested with MIC panels (ThermoFisher Scientific, Cleveland, Ohio, USA) of comparator antibiotics (daptomycin and levofloxacin).
(§3) Because bovine pulmonary surfactant can introduce cloudiness to the MIC testing media, antimicrobial growth inhibition was also evaluated using the colorimetric metabolic indicator resazurin (Camlab Ltd., Cambridge, UK). […] S. pneumoniae panels were omitted from resazurin analysis because the color change was obscured by the lysed horse blood present in the test medium. Growth inhibition was then evaluated as a visible color change from blue (no growth) to pink (robust growth) and recorded as a MICRZ value.
(§4) The MICs of iclaprim, levofloxacin, and daptomycin were determined against Gram-positive and Gram-negative isolates.
(§5) A new vial of bovine pulmonary surfactant (BPS; Survanta®; Abbott Laboratories, Columbus, Ohio) was utilized for each independent experiment. Each vial was mixed thoroughly and a 100 μL aliquot was spread on an agar plate, which was incubated overnight to confirm sterility. […] The concentration of surfactant was expressed in terms of percent volume of Survanta® suspension, which consisted of phospholipid (25 mg/mL) and surfactant proteins (<1 mg/mL) in 0.9% sodium chloride solution (Goerke, 1998). MICs of daptomycin were determined in CAMHB with the Ca^2+ content adjusted to 50 mg/L.

[3] = test system: M. catarrhalis; experiment: MIC with/without bovine pulmonary surfactant, M. catarrhalis; format: cell-based, Moraxella catarrhalis; conditions: for MICRZ, Resazurin: +BPS: 2.5% v/v BPS
Protocol: as §1, §2, §3, §4, §5

[4] = test system: S. aureus; experiment: MIC with/without bovine pulmonary surfactant, S. aureus; format: cell-based, Staphylococcus aureus; conditions: for MICRZ, Resazurin: +BPS: 2.5% v/v BPS; for MICRZ, Resazurin: no BPS
Protocol: as §1, §2, §3, §4, §5

[5] = S. aureus Clinical Isolate 825189

COc1cc(Cc2cnc(N)nc2N)c2c(c1OC)OC(C1CC1)C=C2 (racemic) [Iclaprim]
QTc prolongations [1]: > 60 ms | MICRZ, Resazurin: +BPS ([2]; H. influenzae ATCC 49247, 2.5% v/v BPS): 0.25 µg/mL | MICRZ, Resazurin ([2]; H. influenzae ATCC 49247, no BPS): 0.25 µg/mL | MICRZ, Resazurin: +BPS ([2]; H. influenzae Clinical Isolate 824704, 2.5% v/v BPS): 0.06 µg/mL | MICRZ, Resazurin ([2]; H. influenzae Clinical Isolate 824704, no BPS): 0.06 µg/mL | MIC ([2]; ATCC49247, H. influenzae ATCC 49247, 2.5% v/v BPS, read-out: MIC, CLSI: +BPS): 0.12 µg/mL (≈ 0.339 µM) | MIC ([2]; ATCC49247, H. influenzae ATCC 49247, no BPS, read-out: MIC, CLSI): 0.12 µg/mL (≈ 0.339 µM) | MIC ([2]; H. influenzae Clinical Isolate 824704, 2.5% v/v BPS, read-out: MIC, CLSI: +BPS): 0.06 µg/mL (≈ 0.169 µM) | MIC ([2]; H. influenzae Clinical Isolate 824704, no BPS, read-out: MIC, CLSI): 0.06 µg/mL (≈ 0.169 µM) | MICRZ, Resazurin: +BPS ([3]; M. catarrhalis Clinical Isolate 893806): 8 µg/mL | MICRZ, Resazurin ([3]; M. catarrhalis Clinical Isolate 893806, no BPS): 4 µg/mL | MICRZ, Resazurin: +BPS ([3]; M. catarrhalis Clinical Isolate 893807): 4 µg/mL | MICRZ, Resazurin ([3]; M. catarrhalis Clinical Isolate 893807, no BPS): 4 µg/mL | MIC ([3]; Moraxella catarrhalis, M. catarrhalis Clinical Isolate 893806, no BPS): 4 µg/mL (≈ 11.3 µM) | MICRZ, Resazurin: +BPS ([4]; S. aureus ATCC 29213): 0.06 µg/mL | MICRZ, Resazurin ([4]; S. aureus ATCC 29213): 0.06 µg/mL | MICRZ, Resazurin: +BPS [4, 5]: 0.12 µg/mL | MICRZ, Resazurin [4, 5]: 0.06 µg/mL

Source: patent publication US10080751B2, “Systems and methods for treating bacterial infection” (priority 2016, dated 2018)
